Data from US9464064B2, “HCV helicase inhibitors and methods of use thereof” (University of Kansas, priority 2011, dated 2016).

Target: T1, HCV NS3 helicase NS3h_1b(con1) (Hepatitis C virus genotype 1b, UniProt Q9WMX2)
T1 construct: truncated C-terminally His-tagged NS3 proteins lacking the N-terminal protease, called NS3h; His-tag (C); made in house
Assay: MBHA screen of NCI mechanistic set library at 20 μM (percent inhibition, compound interference)
Assay type: biochemical
Conditions: compounds at 20 μM; for Inh. (%) (Inhibition): calculated from Equation 1
Outline: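 Molecular beacon-based DNA unwinding assay; compounds screened at 20 μM in triplicate, with DMSO-only negative and 500 nM dT20 positive controls. Fluorescence (ex 643/em 670 nm) was read before and 30 min after adding ATP to 1 mM. Percent inhibition came from the change relative to DMSO controls; interference from pre-ATP fluorescence versus DMSO controls.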

[1] = assay interference calculated with Equation 2 (fluorescence vs DMSO-only controls before ATP)
[2] = MBHA with DNA substrate, assay interference calculated with Equation 2

T1 sequence (Q9WMX2 1192-1657): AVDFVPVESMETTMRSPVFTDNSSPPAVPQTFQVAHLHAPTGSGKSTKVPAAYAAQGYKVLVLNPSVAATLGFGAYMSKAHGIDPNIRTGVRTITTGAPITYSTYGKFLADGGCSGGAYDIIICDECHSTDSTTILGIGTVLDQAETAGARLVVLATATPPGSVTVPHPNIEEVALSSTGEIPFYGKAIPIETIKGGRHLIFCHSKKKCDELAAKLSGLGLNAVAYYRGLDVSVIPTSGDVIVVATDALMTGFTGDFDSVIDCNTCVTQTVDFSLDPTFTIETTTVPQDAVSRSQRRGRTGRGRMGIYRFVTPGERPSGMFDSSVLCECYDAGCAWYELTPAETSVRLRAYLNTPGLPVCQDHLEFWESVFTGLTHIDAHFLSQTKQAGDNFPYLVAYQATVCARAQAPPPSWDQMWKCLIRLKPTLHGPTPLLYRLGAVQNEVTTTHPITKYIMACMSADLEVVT

Cc1nc(Nc2ccc(Cl)c(Cl)c2)sc1C(/C=C/c1ccc2c(c1)OCO2)=N/Nc1ccc([N+](=O)[O-])cc1[N+](=O)[O-] [Compound 640335]
Inh. (%) (Inhibition) (MBHA with a DNA substrate): −24.2%
Int.* (Ratio) (Interference) [1]: 0.91 Ratio

Cc1ccc(Nc2nc(C)c(C(/C=C/c3ccc(/C=C/C(=N\NC(=O)C[n+]4ccccc4)c4sc(Nc5ccc(C)cc5[N+](=O)[O-])nc4C)cc3)=N/NC(=O)C[n+]3ccccc3)s2)c([N+](=O)[O-])c1.Cl [Compound 640342]
Inh. (%) (Inhibition) (MBHA with a DNA substrate): −22.4%
Int.* (Ratio) (Interference) [1]: 0.95 Ratio

CN(C)C[C@H]1CC[C@@H](CN(C)C)C1=O.Cl.Cl [Compound 640391]
Inh. (%) (Inhibition) (MBHA with a DNA substrate): 10.6%
Int.* (Ratio) (Interference) [1]: 1.09 Ratio

OCCOc1ccc(-c2cc(-c3ccccn3)nc(-c3ccccn3)c2)cc1 [Compound 640499]
Inh. (%) (Inhibition) (MBHA with a DNA substrate): −25.9%
Int.* (Ratio) (Interference) [1]: 0.91 Ratio

CCNCCCCNCCCCNCCCCNCCCCNCC.Cl [Compound 640506]
Int.* (Ratio) (Interference) [2]: 0.91 Ratio
Inh. (%) (Inhibition) (MBHA with DNA substrate): 71.1%

Cc1nc(-c2cccnc2)sc1C(=O)/C=C/c1ccc(Cl)cc1Cl [Compound 640580]
Inh. (%) (Inhibition) (MBHA with a DNA substrate): −32.9%
Int.* (Ratio) (Interference) [1]: 1.09 Ratio

Cc1nc(-n2nc(-c3ccccc3)cc2-c2ccccc2)sc1C(=O)/C=C/c1ccc(Cl)c(Cl)c1 [Compound 640584]
Inh. (%) (Inhibition) (MBHA with a DNA substrate): 9.6%
Int.* (Ratio) (Interference) [1]: 0.90 Ratio

CC1=CC(C)(C)N=C2SC(c3ccc(N)cc3)=NN12 [Compound 640624]
Inh. (%) (Inhibition) (MBHA with a DNA substrate): −4.2%
Int.* (Ratio) (Interference) [1]: 1.11 Ratio

S=C(Nc1ccccc1)N(/N=C/C=C/c1ccccc1)c1nnc(-c2ccccc2)c(-c2ccccc2)n1 [Compound 640637]
Inh. (%) (Inhibition) (MBHA with a DNA substrate): −3.0%
Int.* (Ratio) (Interference) [1]: 0.86 Ratio

BrC(/C=N/Nc1nnc(-c2ccccc2)c(-c2ccccc2)n1)C(Br)c1ccccc1 (centres unmarked) [Compound 640638]
Int.* (Ratio) (Interference) [2]: 0.93 Ratio
Inh. (%) (Inhibition) (MBHA with DNA substrate): −7.0%

N#Cc1ccccc1NC(=O)C(=O)C(C(=O)c1ccccc1F)C1OC(=O)c2ccccc21 (centres unmarked) [Compound 640974]
Inh. (%) (Inhibition) (MBHA with a DNA substrate): −33.1%
Int.* (Ratio) (Interference) [1]: 0.87 Ratio

Cc1ccc(C)c(NC(=O)C(=O)C(C(=O)c2ccc3ccccc3c2)C2OC(=O)c3ccccc32)c1 (centres unmarked) [Compound 640985]
Int.* (Ratio) (Interference) [2]: 0.97 Ratio
Inh. (%) (Inhibition) (MBHA with DNA substrate): −10.5%

Cc1ccccc1NC(=O)C(=O)C(C(=O)c1ccccc1F)C1OC(=O)c2ccccc21 (centres unmarked) [Compound 641228]
Inh. (%) (Inhibition) (MBHA with a DNA substrate): −39.7%
Int.* (Ratio) (Interference) [1]: 0.92 Ratio

O=C(NC1=C(Cl)C(=O)c2ccccc2C1=O)C(=O)C(C(=O)c1ccc2ccccc2c1)C1OC(=O)c2ccccc21 (centres unmarked) [Compound 641233]
Int.* (Ratio) (Interference) [2]: 0.91 Ratio
Inh. (%) (Inhibition) (MBHA with DNA substrate): −13.1%

COC(=O)c1ccccc1NC(=O)C(=O)CC(=O)c1ccccc1NC1=CC(=O)C(=O)c2ccccc21 [Compound 641240]
Int.* (Ratio) (Interference) [2]: 0.88 Ratio
Inh. (%) (Inhibition) (MBHA with DNA substrate): −14.8%

O=C(CC(=O)c1ccccc1NC1=Cc2ccccc2C(=O)C1=O)C(=O)NC1=C(Cl)C(=O)c2ccccc2C1=O [Compound 641245]
Int.* (Ratio) (Interference) [2]: 0.89 Ratio
Inh. (%) (Inhibition) (MBHA with DNA substrate): −13.7%

O=C1C=C(Nc2ccccc2C(=O)CC(=O)C(=O)Nc2ccc(Cl)c(Cl)c2)c2ccccc2C1=O [Compound 641250]
Int.* (Ratio) (Interference) [2]: 0.95 Ratio
Inh. (%) (Inhibition) (MBHA with DNA substrate): −13.6%

O=C1C=C(Nc2ccccc2C(=O)CC(=O)C(=O)Nc2ccc(Cl)cc2)c2ccccc2C1=O [Compound 641253]
Inh. (%) (Inhibition) (MBHA with a DNA substrate): −34.2%
Int.* (Ratio) (Interference) [1]: 0.95 Ratio

COc1ccc(/C(=N/O)C(c2ccc(OC)cc2)C2C(=O)Oc3ccccc32)cc1 (centres unmarked) [Compound 641607]
Int.* (Ratio) (Interference) [2]: 1.03 Ratio
Inh. (%) (Inhibition) (MBHA with DNA substrate): 29.4%
